From ChEMBL document CHEMBL3822383, “Coumarin sulfonamides derivatives as potent and selective COX-2 inhibitors with efficacy in suppressing cancer proliferation and metastasis” (Bioorg Med Chem Lett, 2016)
The source made the active and inactive calls. No cut-off for these calls is given here.

How the values were obtained:
[1] = system: HeLa; experiment: Inhibition of PGE2 secretion in human HeLa cells at 0.1 uM after 24 hrs by EIA monoclonal assay; format: functional, cell-based
[2] = system: HeLa; experiment: Induction of apoptosis in human HeLa cells assessed as late apoptotic cells at 3 uM after 12 hrs by Annexin V/propidium iodide based flow cytometric analysis (reference value: 2.21 %); format: functional
[3] = system: HeLa; experiment: Antiproliferative activity in PGE2-induced human HeLa cells at 2 uM after 12 to 24 hrs by MTT assay; format: functional, cell-based
[4] = system: HeLa; experiment: Induction of apoptosis in human HeLa cells assessed as viable cells at 8 uM after 24 hrs by Annexin V/propidium iodide based flow cytometric analysis (reference value: 95.5 %); format: functional; settings: read-out: Activity
[5] = system: HeLa; experiment: Induction of apoptosis in human HeLa cells assessed as necrotic cells at 2 uM after 24 hrs by Annexin V/propidium iodide based flow cytometric analysis (reference value: 0.441 %); format: functional
[6] = system: HeLa; experiment: Reduction in cell invasion in human HeLa cells up to 4 uM by transwell invasion assay; format: functional, cell-based
[7] = cells; settings: Homo sapiens, HEK-293T, 24 h
Description: Antiproliferative activity against human 293T cells after 24 hrs by MTT assay

[8] = cells; settings: Homo sapiens, L02, 24 h
Description: Antiproliferative activity against human LO2 cells after 24 hrs by MTT assay

[9] = system: HeLa; experiment: Induction of apoptosis in human HeLa cells assessed as necrotic cells at 3 uM after 36 hrs by Annexin V/propidium iodide based flow cytometric analysis (reference value: 0.207 %); format: functional
[10] = system: HeLa; experiment: Induction of apoptosis in PGE2-induced human HeLa cells assessed as late apoptotic cells at 3 uM after 24 hrs by Annexin V/propidium iodide based flow cytometric analysis; format: functional, cell-based
[11] = system: HeLa; experiment: Induction of apoptosis in human HeLa cells assessed as necrotic cells at 1 uM after 24 hrs by Annexin V/propidium iodide based flow cytometric analysis (reference value: 0.441 %); format: functional
[12] = system: HeLa; experiment: Induction of apoptosis in human HeLa cells assessed as necrotic cells at 4 uM after 24 hrs by Annexin V/propidium iodide based flow cytometric analysis (reference value: 0.441 %); format: functional
[13] = system: HeLa; experiment: Induction of apoptosis in PGE2-induced human HeLa cells assessed as early apoptotic cells at 3 uM after 24 hrs by Annexin V/propidium iodide based flow cytometric analysis; format: functional, cell-based
[14] = system: HeLa; experiment: Reduction in cell migration in PGE2-induced human HeLa cells at 2 uM by transwell migration assay; format: functional, cell-based
[15] = cells; settings: Mus musculus, B16-F10, 24 h
Description: Antiproliferative activity against mouse B16F10 cells after 24 hrs by MTT assay

[16] = system: HepG2; experiment: cells; settings: Homo sapiens, HepG2, 24 h
Description: Antiproliferative activity against human HepG2 cells after 24 hrs by MTT assay

[17] = system: HeLa; experiment: Induction of apoptosis in human HeLa cells assessed as early apoptotic cells at 3 uM after 36 hrs by Annexin V/propidium iodide based flow cytometric analysis (reference value: 1.61 %); format: functional
[18] = system: HeLa; experiment: Induction of apoptosis in human HeLa cells assessed as viable cells at 3 uM after 24 hrs by Annexin V/propidium iodide based flow cytometric analysis (reference value: 96 %); format: functional; settings: read-out: Activity
[19] = system: HeLa; experiment: Induction of apoptosis in human HeLa cells assessed as necrotic cells at 3 uM after 24 hrs by Annexin V/propidium iodide based flow cytometric analysis (reference value: 0.207 %); format: functional
[20] = system: HeLa; experiment: Induction of apoptosis in human HeLa cells assessed as late apoptotic cells at 1 uM after 24 hrs by Annexin V/propidium iodide based flow cytometric analysis (reference value: 3.16 %); format: functional
[21] = system: HeLa; experiment: Induction of apoptosis in human HeLa cells assessed as late apoptotic cells at 3 uM after 24 hrs by Annexin V/propidium iodide based flow cytometric analysis (reference value: 2.21 %); format: functional
[22] = system: HeLa; experiment: Induction of apoptosis in human HeLa cells assessed as early apoptotic cells at 1 uM after 24 hrs by Annexin V/propidium iodide based flow cytometric analysis (reference value: 0.902 %); format: functional
[23] = system: HeLa; experiment: cells; settings: Homo sapiens, 24 h
Description: Antiproliferative activity against human HeLa cells after 24 hrs by MTT assay

[24] = target: Prostaglandin G/H synthase 1 (Homo sapiens, UniProt P23219); experiment: Inhibition of human COX1 using arachidonic acid assessed as production of PGF2alpha after 5 mins by ELISA
[25] = system: HeLa; experiment: Induction of apoptosis in human HeLa cells assessed as viable cells at 4 uM after 24 hrs by Annexin V/propidium iodide based flow cytometric analysis (reference value: 95.5 %); format: functional; settings: read-out: Activity
[26] = system: HeLa; experiment: Induction of apoptosis in human HeLa cells assessed as viable cells at 2 uM after 24 hrs by Annexin V/propidium iodide based flow cytometric analysis (reference value: 95.5 %); format: functional; settings: read-out: Activity
[27] = system: HeLa; experiment: Induction of apoptosis in human HeLa cells assessed as early apoptotic cells at 2 uM after 24 hrs by Annexin V/propidium iodide based flow cytometric analysis (reference value: 0.902 %); format: functional
[28] = system: HeLa; experiment: Induction of apoptosis in human HeLa cells assessed as late apoptotic cells at 2 uM after 24 hrs by Annexin V/propidium iodide based flow cytometric analysis (reference value: 3.16 %); format: functional
[29] = system: A549; experiment: cells; settings: Homo sapiens, A549, 24 h
Description: Antiproliferative activity against human A549 cells after 24 hrs by MTT assay

[30] = system: HeLa; experiment: Induction of apoptosis in PGE2-induced human HeLa cells assessed as viable cells at 3 uM after 24 hrs by Annexin V/propidium iodide based flow cytometric analysis; format: functional, cell-based
[31] = system: HeLa; experiment: Induction of apoptosis in PGE2-induced human HeLa cells assessed as necrotic cells at 3 uM after 24 hrs by Annexin V/propidium iodide based flow cytometric analysis; format: functional, cell-based
[32] = system: HeLa; experiment: Induction of apoptosis in human HeLa cells assessed as late apoptotic cells at 4 uM after 24 hrs by Annexin V/propidium iodide based flow cytometric analysis (reference value: 3.16 %); format: functional
[33] = system: HeLa; experiment: Induction of apoptosis in human HeLa cells assessed as late apoptotic cells at 3 uM after 36 hrs by Annexin V/propidium iodide based flow cytometric analysis (reference value: 2.21 %); format: functional
[34] = system: HeLa; experiment: Induction of apoptosis in human HeLa cells assessed as early apoptotic cells at 3 uM after 12 hrs by Annexin V/propidium iodide based flow cytometric analysis (reference value: 1.61 %); format: functional
[35] = system: HeLa; experiment: Induction of apoptosis in human HeLa cells assessed as viable cells at 3 uM after 36 hrs by Annexin V/propidium iodide based flow cytometric analysis (reference value: 96 %); format: functional; settings: read-out: Activity
[36] = system: HeLa; experiment: Induction of apoptosis in human HeLa cells assessed as necrotic cells at 8 uM after 24 hrs by Annexin V/propidium iodide based flow cytometric analysis (reference value: 0.441 %); format: functional
[37] = system: HeLa; experiment: Induction of apoptosis in human HeLa cells assessed as viable cells at 1 uM after 24 hrs by Annexin V/propidium iodide based flow cytometric analysis (reference value: 95.5 %); format: functional; settings: read-out: Activity
[38] = system: HeLa; experiment: Inhibition of cell adhesion in PGE2-induced human HeLa cells assessed as reduction in cell attachment at 2 uM after 12 hrs by MTT assay; format: functional, cell-based
[39] = system: HeLa; experiment: Induction of apoptosis in human HeLa cells assessed as necrotic cells at 3 uM after 12 hrs by Annexin V/propidium iodide based flow cytometric analysis (reference value: 0.441 %); format: functional
[40] = system: HeLa; experiment: Inhibition of cell adhesion in human HeLa cells assessed as reduction in cell attachment after 1 hr by MTT assay; format: functional, cell-based
[41] = system: HeLa; experiment: Induction of apoptosis in human HeLa cells assessed as early apoptotic cells at 3 uM after 24 hrs by Annexin V/propidium iodide based flow cytometric analysis (reference value: 1.61 %); format: functional
[42] = system: HeLa; experiment: Inhibition of cell adhesion in human HeLa cells assessed as reduction in cell attachment at 2 uM after 1 hr by MTT assay; format: functional
[43] = system: HeLa; experiment: Induction of apoptosis in human HeLa cells assessed as late apoptotic cells at 8 uM after 24 hrs by Annexin V/propidium iodide based flow cytometric analysis (reference value: 3.16 %); format: functional
[44] = system: HeLa; experiment: Induction of apoptosis in human HeLa cells assessed as necrotic cells at 3 uM after 12 hrs by Annexin V/propidium iodide based flow cytometric analysis (reference value: 0.207 %); format: functional
[45] = system: HeLa; experiment: Reduction in cell migration in human HeLa cells up to 4 uM by transwell migration assay; format: functional, cell-based
[46] = system: HeLa; experiment: Induction of apoptosis in human HeLa cells assessed as early apoptotic cells at 4 uM after 24 hrs by Annexin V/propidium iodide based flow cytometric analysis (reference value: 0.902 %); format: functional
[47] = system: HeLa; experiment: Induction of apoptosis in human HeLa cells assessed as early apoptotic cells at 8 uM after 24 hrs by Annexin V/propidium iodide based flow cytometric analysis (reference value: 0.902 %); format: functional
[48] = system: HeLa; experiment: Induction of apoptosis in human HeLa cells assessed as viable cells at 3 uM after 12 hrs by Annexin V/propidium iodide based flow cytometric analysis (reference value: 96 %); format: functional; settings: read-out: Activity
[49] = system: HeLa; experiment: Reduction in cell invasion in PGE2-induced human HeLa cells at 2 uM by transwell invasion assay; format: functional, cell-based

Sequence of Prostaglandin G/H synthase 1 (P23219 whole entry): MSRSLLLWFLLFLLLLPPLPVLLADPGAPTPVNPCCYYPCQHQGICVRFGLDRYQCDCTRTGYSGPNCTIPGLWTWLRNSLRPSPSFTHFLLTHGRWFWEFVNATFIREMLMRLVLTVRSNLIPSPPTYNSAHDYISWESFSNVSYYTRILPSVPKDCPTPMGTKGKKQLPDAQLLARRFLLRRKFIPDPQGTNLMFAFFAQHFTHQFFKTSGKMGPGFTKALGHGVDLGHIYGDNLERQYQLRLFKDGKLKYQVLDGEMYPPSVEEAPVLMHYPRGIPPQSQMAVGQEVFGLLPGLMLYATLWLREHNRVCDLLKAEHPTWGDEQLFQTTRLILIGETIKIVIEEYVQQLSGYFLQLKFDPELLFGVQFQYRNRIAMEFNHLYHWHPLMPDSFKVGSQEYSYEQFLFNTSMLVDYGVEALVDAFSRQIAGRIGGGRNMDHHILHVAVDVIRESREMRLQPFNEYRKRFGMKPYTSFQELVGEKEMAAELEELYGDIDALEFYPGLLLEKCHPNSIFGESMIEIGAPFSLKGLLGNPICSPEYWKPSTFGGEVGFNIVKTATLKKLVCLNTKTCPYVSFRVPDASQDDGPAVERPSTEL

For `NS(=O)(=O)c1ccc(-n2nc(C(=O)N/N=C/c3c(Cl)c4ccccc4oc3=O)cc2-c2ccc(C(F)(F)F)cc2)cc1`, the inhibition [1] was “Active”, the Activity [2] was 3.02% and the Activity [3] was “Active”. The viability at 8 µM [4] was 49%, the Activity [5] was 0.143% and the Activity [6] was “Active”. For the same compound, the IC50 [7] was 234000 nM, the IC50 [8] was 267000 nM and the Activity [9] was 1.62%. The Activity [10] was “Active”, the Activity [11] was 0.301% and the Activity [12] was 2.14%. The Activity [13] was “Active”, the Activity [14] was “Active” and the IC50 [15] was 2270 nM. The IC50 [16] was 850 nM, the Activity [17] was 21.6% and the viability at 3 µM [18] was 76.3%. The Activity [19] was 0.049%, the Activity [20] was 3.58% and the Activity [21] was 8.83%. The Activity [22] was 2.12%, the IC50 [23] was 360 nM and the IC50 [24] was 48200 nM. For the same compound, the viability at 4 µM [25] was 62%, the viability at 2 µM [26] was 85.9% and the Activity [27] was 7.64%. The Activity [28] was 6.29%, the IC50 [29] was 2560 nM and the Activity [30] was “Active”. For the same compound, the Activity [31] was “Active”, the Activity [32] was 11% and the Activity [33] was 10.2%. The Activity [34] was 3.79%, the viability at 3 µM [35] was 66.6% and the Activity [36] was 1.82%. For the same compound, the viability at 1 µM [37] was 94%, the inhibition [38] was “Active” and the Activity [39] was 0.276%. For the same compound, the inhibition [40] was “Dose-dependent effect”, the Activity [41] was 14.8% and the inhibition at 2 µM [42] was 60%. The Activity [43] was 15.6%, the Activity [44] was 0.276% and the Activity [45] was “Dose-dependent effect”. It also gave an Activity [46] of 24.8%, an Activity [47] of 33.6% and a viability at 3 µM [48] of 92.9%. For the same compound, the Activity [49] was “Active”.
